Here are results for 35 molecules from US10968169B2, “Urea derivative” (Daiichi Sankyo Company, Limited, priority 2016, dated 2021).

As a reminder, the IC50 is the point on the concentration scale where inhibition reaches its midpoint.

The target in the assay is tryptophanase of Bacteroides thetaiotamicron (Bacteroides thetaiotaomicron, UniProt Q8A7N2). Kind of assay: Tryptophanase enzyme inhibitory activity (LDH-coupled NADH loss). The note with it: L-tryptophan 10 mM, 37° C., absorbance at 340 nm; read-out: Bacteroides Activity of Inhibiting Tryptophanase (IC50). The format is biochemical. The protocol:
Tryptophanase inhibitory activity was evaluated by a method using lactate dehydrogenase (LDH). The reaction time-dependent reduction in NADH conjugated with the enzymatic reaction, with LDH, of pyruvic acid produced through the enzymatic reaction of L-tryptophan as a substrate with tryptophanase, was measured with a spectrophotometer (Phillips-R S et al., Biochemistry, 23, 6228-6234 (1984)). Enzyme inhibitory activity obtained without adding a test compound (by adding DMSO alone) in the presence of tryptophanase was used as a control. As the enzyme, tryptophanase of Bacteroides thetaiotamicron (Genbank accession number: HC914434.1) was used. A test compound solution was prepared by dissolving each test compound in DMSO in an arbitrary concentration (from 30 mM to 30 nM at 10-fold common ratio). LDH, NADH and L-tryptophan were prepared, using distilled water, respectively to concentrations of 80 units/mL, 10 mM and […]. Bacteroides tryptophanase was prepared to 30 mg/mL. A potassium phosphate buffer was used as the buffer. [table] A reaction solution A was dispensed at 284.8 μL per well into a 96-well plate, and the test compound solution was added at 3.2 μL per well to obtain a final concentration of 1/100 (reaction solution B). The reaction solution B was incubated at 37° C. for 30 minutes, L-tryptophan was added thereto at 32 μL per well to obtain a final concentration of 10 mM (reaction solution C), and the enzyme reaction was performed at 37° C. over 30 minutes with absorbance at 340 nm measured for monitoring the NADH loss. Based on the NADH loss, the tryptophanase inhibitory activity of the compound was evaluated. Besides, the following compounds were similarly tested instead of the test compound.

tryptophanase of Bacteroides thetaiotamicron, sequence (Q8A7N2 entry or part of it, change not shown): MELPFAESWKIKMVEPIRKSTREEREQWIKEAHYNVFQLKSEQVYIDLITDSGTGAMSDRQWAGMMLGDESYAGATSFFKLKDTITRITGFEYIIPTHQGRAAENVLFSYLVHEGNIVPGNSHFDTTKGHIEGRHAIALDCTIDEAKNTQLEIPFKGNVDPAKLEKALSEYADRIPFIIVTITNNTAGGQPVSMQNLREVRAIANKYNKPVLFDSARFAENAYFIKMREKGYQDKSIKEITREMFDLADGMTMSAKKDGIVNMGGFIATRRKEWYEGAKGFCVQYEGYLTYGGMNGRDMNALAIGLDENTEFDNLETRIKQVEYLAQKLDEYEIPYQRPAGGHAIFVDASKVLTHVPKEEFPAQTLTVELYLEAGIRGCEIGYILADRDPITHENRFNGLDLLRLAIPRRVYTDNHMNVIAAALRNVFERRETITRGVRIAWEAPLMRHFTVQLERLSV

As for `CCC(CC)(NC(=O)Nc1ccc(OC(F)(F)F)cc1)C(=O)O` [Example 1, 2-Ethyl-2-({[4-(trifluoromethoxy)phenyl]carbamoyl}amino)butanoic acid], the IC50 is 3.7 µM.
For `CC(NC(=O)Nc1ccc(OC(F)(F)F)cc1)(C(=O)O)C1CC1` (centres unmarked) [Example 2, 2-Cyclopropyl-2-({[4-(trifluoromethoxy)phenyl]carbamoyl}amino)propanoic acid] the value was 20.3 µM; for `CC(C)CC(C)(NC(=O)Nc1ccc(OC(F)(F)F)cc1)C(=O)O` (centres unmarked) [Example 3, 2-Methyl-N-{[4-(trifluoromethoxy)phenyl]carbamoyl}leucine], 8.7 µM; for `CC[C@@](C)(NC(=O)Nc1ccc(OC(F)(F)F)cc1)C(=O)O` [Example 4, (−)-N-{[4-(Trifluoromethoxy)phenyl]carbamoyl}-D-isovaline], 8.8 µM.
On to `O=C(Nc1ccc(OC(F)(F)F)cc1)NC(C(=O)O)(C1CC1)C1CC1` [Example 5, Dicyclopropyl({[4-(trifluoromethoxy)phenyl]carbamoyl}amino)acetic acid], for which the IC50 was determined as 1.7 µM.
In the case of `CCCC(CC)(NC(=O)Nc1ccc(OC(F)(F)F)cc1)C(=O)O` (centres unmarked) [Example 6, 2-Ethyl-N-{[4-(trifluoromethoxy)phenyl]carbamoyl}norvaline], the IC50 was found to be 5.3 µM.
For `CCC(NC(=O)Nc1ccc(OC(F)(F)F)cc1)(C(=O)O)C1CC1` (centres unmarked) [Example 7, 2-Cyclopropyl-2-({[4-(trifluoromethoxy)phenyl]carbamoyl}amino)butanoic acid] the value was 0.3 µM; for `O=C(Nc1ccc(OC(F)F)cc1)NC(C(=O)O)(C1CC1)C1CC1` [Example 10, Dicyclopropyl({[4-(difluoromethoxy)phenyl]carbamoyl}amino)acetic acid], 1.9 µM; for `CCC(NC(=O)Nc1ccc(OC(F)F)cc1)(C(=O)O)C1CC1` (centres unmarked) [Example 11, 2-Cyclopropyl-2-({[4-(difluoromethoxy)phenyl]carbamoyl}amino)butanoic acid], 0.6 µM.
For `CC[C@@](C)(NC(=O)Nc1ccc(CC(F)(F)F)cc1)C(=O)O` [Example 13, N-{[4-(2,2,2-Trifluoroethyl)phenyl]carbamoyl}-D-isovaline] the value was 6.7 µM; for `CCC(CC)(NC(=O)Nc1ccc(SC(F)(F)F)cc1)C(=O)O` [Example 14, 2-Ethyl-2-[({4-[(trifluoromethyl)sulfanyl]phenyl}carbamoyl)amino]butanoic acid], 0.4 µM.
Regarding `CCC(CC)(NC(=O)Nc1ccc(OC(F)F)cc1F)C(=O)O` [Example 16, 2-({[4-(Difluoromethoxy)-2-fluorophenyl]carbamoyl}amino)-2-ethylbutanoic acid], the half-maximal inhibitory concentration (IC50) amounted to 4.2 µM.
For `CC[C@@](C)(NC(=O)Nc1ccc(OC(F)F)cc1F)C(=O)O` [Example 17, N-{[4-(Difluoromethoxy)-2-fluorophenyl]carbamoyl}-D-isovaline] the value was 12.3 µM; for `CC[C@@](C)(NC(=O)Nc1ccc(OC(F)F)c(Cl)c1)C(=O)O` [Example 18, N-{[3-Chloro-4-(difluoromethoxy)phenyl]carbamoyl}-D-isovaline], 5.3 µM; for `CC[C@@](C)(NC(=O)Nc1ccc(OC(F)(F)F)c(C#N)c1)C(=O)O` [Example 19, N-{[3-Cyano-4-(trifluoromethoxy)phenyl]carbamoyl}-D-isovaline], 35.6 µM.
Take `CCC(CC)(NC(=O)Nc1ccc(C(F)(F)F)cc1)C(=O)O` [Example 20, 2-Ethyl-2-({[4-(trifluoromethyl)phenyl]carbamoyl}amino)butanoic acid]: the IC50 was 11.6 µM.
For `O=C(Nc1ccccc1)NC(C(=O)O)(C1CC1)C1CC1` [Example 21, Dicyclopropyl[(phenylcarbamoyl)amino]acetic acid] the value was 5 µM; for `CCC(NC(=O)Nc1ccccc1)(C(=O)O)C1CC1` (centres unmarked) [Example 22, 2-Cyclopropyl-2-[(phenylcarbamoyl)amino]butanoic acid], 2.1 µM.
For `CCC(NC(=O)Nc1ccc(F)cc1)(C(=O)O)C1CC1` (centres unmarked) [Example 23, 2-Cyclopropyl-2-{[(4-fluorophenyl)carbamoyl]amino}butanoic acid] the value was 5.2 µM; for `CC[C@@](C)(NC(=O)Nc1cccc(F)c1)C(=O)O` [Example 24, N-[(3-Fluorophenyl)carbamoyl]-D-isovaline], 33.2 µM.
For `CC[C@@](C)(NC(=O)Nc1cccc(Cl)c1)C(=O)O` [Example 26, N-[(3-Chlorophenyl)carbamoyl]-D-isovaline] the value was 13.2 µM.
In the case of `CCC(CC)(NC(=O)Nc1ccc(Cl)s1)C(=O)O` [Example 28, 2-{[(5-Chlorothiophen-2-yl)carbamoyl]amino}-2-ethylbutanoic acid], the IC50 came out at 3.2 µM.
Turning to `CC[C@@](C)(NC(=O)Nc1ccc(Cl)c(Cl)c1)C(=O)O` [Example 29, N-[(3,4-Dichlorophenyl)carbamoyl]-D-isovaline], the IC50 was 15.5 µM.
For `CCC(NC(=O)Nc1cccc(C#N)c1)(C(=O)O)C1CC1` (centres unmarked) [Example 32, 2-{[(3-Cyanophenyl)carbamoyl]amino}-2-cyclopropylbutanoic acid] the value was 1 µM; for `N#Cc1cccc(NC(=O)NC(C(=O)O)(C2CC2)C2CC2)c1` [Example 34, {[(3-Cyanophenyl)carbamoyl]amino}(dicyclopropyl)acetic acid], 1.8 µM.
For `N#Cc1ccc(NC(=O)NC(C(=O)O)(C2CC2)C2CC2)cc1` [Example 35, {[(4-Cyanophenyl)carbamoyl]amino}(dicyclopropyl)acetic acid] the value was 10.9 µM; for `CCC(CC)(NC(=O)Nc1cc(F)cc(C#N)c1)C(=O)O` [Example 36, 2-{[(3-Cyano-5-fluorophenyl)carbamoyl]amino}-2-ethylbutanoic acid], 20.1 µM; for `CCC(CC)(NC(=O)Nc1ccc(Cl)c(C#N)c1)C(=O)O` [Example 37, 2-{[(4-Chloro-3-cyanophenyl)carbamoyl]amino}-2-ethylbutanoic acid], 25 µM.
For `N#CCc1ccc(NC(=O)NC(C(=O)O)(C2CC2)C2CC2)cc1` [Example 38, ({[4-(Cyanomethyl)phenyl]carbamoyl}amino)(dicyclopropyl)acetic acid] the value was 3.4 µM; for `CCC(CC)(NC(=O)Nc1ccc(C2(C#N)CC2)cc1)C(=O)O` [Example 39, 2-({[4-(1-Cyanocyclopropyl)phenyl]carbamoyl}amino)-2-ethylbutanoic acid], 5.2 µM.
For `CCC(CC)(NC(=O)Nc1ccc(C(C)C#N)cc1)C(=O)O` (centres unmarked) [Example 40, 2-({[4-(1-Cyanoethyl)phenyl]carbamoyl}amino)-2-ethylbutanoic acid], the IC50 came out at 5.8 µM.
`CCC(CC)(NC(=O)Nc1ccc(-c2ccccc2)cc1)C(=O)O` [Example 41, 2-[(Biphenyl-4-ylcarbamoyl)amino]-2-ethylbutanoic acid]: the half-inhibitory concentration (IC50) worked out at 0.3 µM.
For `CCC(CC)(NC(=O)Nc1ccc(-c2ccccc2F)cc1)C(=O)O` [Example 42, 2-Ethyl-2-{[(2′-fluorobiphenyl-4-yl)carbamoyl]amino}butanoic acid] the value was 0.1 µM; for `CCC(CC)(NC(=O)Nc1ccc(N2CCCCC2)cc1)C(=O)O` [Example 43], 1.6 µM; for `CCC(CC)(NC(=O)Nc1ccc(N2CCC(F)(F)C2)cc1)C(=O)O` [Example 44, 2-({[4-(3,3-Difluoropyrrolidine-1-yl)phenyl]carbamoyl}amino)-2-ethylbutanoic acid], 2.5 µM.
